Reference: patent US20210322508A1, “PEPTIDES AND COMPOSITIONS FOR TARGETED TREATMENT AND IMAGING” (SIGNABLOK, INC., priority 2018, published 2021)
Residues, ends and D or L forms follow the SMILES beside them.

Experiments:
LPS-challenged mice [1] = test: survival of LPS-challenged (septic shock) mice; assay type: in vivo; conditions: vs vehicle
Text: FIG. 15B. **, P=0.001 to 0.01 as compared with vehicle-treated animals.

[2] = test system: LPS-stimulated J774A.1 macrophages (TNF-alpha, IL-6, IL-1beta); test: In vitro cytokine release by LPS-stimulated macrophages; assay type: cell-based, mouse; conditions: 10 ng/ml after pre-incubation with HDL; LPS 1 μg/ml, 24 h
Method: (§1) The BALB/c murine macrophage cell line J774A.1 (ATCC TIB-67) were obtained from the American Type Culture Collection (ATCC, Manassas, Va.). Macrophages were cultured in 48-well plates (Corning, Cambridge, Mass.) for 24 h at 37° C. in the presence of LPS (1 μg/ml, Escherichia coli 055:B5, Sigma) in combination with 10 ng/ml peptides either pre-incubated or not with HDL. Cell-free supernatants were harvested and stored at −20° C. for later cytokine quantification. TNF-alpha, IL-6, and IL-1beta were assayed using commercial ELISA kits (Pierce Biotechnology, Thermo Scientific, Rockford, Ill.) according to the recommendations of the manufacturer. Results were represented as the mean±S.D. of three independent experiments. Statistical significances in in vitro macrophage uptake assay were determined by two-tailed Student's t test.
as §1, with “Macrophages were cultured in 48-well plates (Corning, Cambridge, Mass.) for 24 h at 37° C. in the presence of LPS (1 μg/ml, Escherichia coli 055:B5, Sigma) in combination with 10 ng/ml peptides either pre-incubated or not with HDL.” left out

[3] = test system: AsPC-1, BxPC-3 and Capan-1 xenograft tumors; test: Human PC xenograft mouse models: tumor growth, survival, tolerability; assay type: in vivo; conditions: free peptides i.p. once daily 5 days per week at indicated doses
Method: (§2) Mice were monitored daily and tumor measurements were taken along the length and width using Vernier calipers twice weekly until sacrifice. Tumor volumes were calculated using a modified ellipsoidal formula: (Length×Width^2)/2.
Results are expressed as the mean±SEM.
as §2
Mice were monitored daily and tumor measurements were taken along the length and width using Vernier calipers twice weekly until sacrifice.

J774A.1 macrophages = test: In vitro macrophage endocytosis of fluorescent peptides with or without HDL; assay type: cell-based, mouse; conditions: for receptors mediating in vitro macrophage endocytosis: pre-incubated with HDL, fucoidan, BLT-1, cytochalasin D; for in vitro macrophage endocytosis, effect of pre-incubation with HDL: rho B-labeled peptides, 1 mg/ml HDL
Method: The BALB/c murine macrophage cell line J774A.1 (ATCC TIB-67) were obtained from the American Type Culture Collection (ATCC, Manassas, Va.). The macrophage cells were cultured at 37° C. with 5% CO2 in Dulbecco's modified Eagle's medium (DMEM) (Cellgro, Mediatech Inc, Manassas, Va.) with 2 mM glutamine, 100 U/ml penicillin, 0.1 mg/ml streptomycin, and 10% fetal bovine serum (FBS) (Cellgro, Mediatech Inc, Manassas, Va.) and grown to approximately 90% of confluence in 6-well tissue culture plates (Corning, Tewksbury, Mass.). Cells were incubated for varied time periods from 4 to 24 h at 37° C. with fluorescently labeled peptides (pre-incubated with 1 mg/ml HDL) at a concentration of 4 μM rhodamine B (rho-B). After incubation, cells were washed twice with PBS and lysed using Promega passive lysis buffer (Promega, Madison, Wis.). The rho B fluorescence was measured in the lysates with a 540 nm excitation and a 590 nm emission filters using the Gemini EM fluorescence microplate reader (Molecular Devices, Sunnyvale, Calif.). The protein concentration in the lysates was determined using the Bradford reagent (Bio-Rad, Richmond, Calif.) and the SpectraMax 190 microplate reader (Molecular Devices, Sunnyvale, Calif.).
In one embodiment, after reaching target confluency, cells were incubated for 1 h in medium with or without fucoidan (400 μg/mL), BLT-1 (10 μM) or cytochalasin D (40 μM), Cells were subsequently incubated for 4 h and 22 h at 37° C. in medium containing 2 μM of rho B-labeled peptides G-KV21 and G-HV21 (as calculated for rho B) that were pre-incubated with 1 mg/ml HDL. After incubation, cells were washed twice with PBS and lysed using Promega passive lysis buffer. The rho B fluorescence and protein concentration were measured in the lysates as described above.

LPS-challenged mice [4] = test: cytokine production in LPS-challenged mice; assay type: in vivo; conditions: treated 1 h before LPS challenge
Method: Control peptide represents an equimolar mixture of two peptides, each of them comprising two amino acid domains A and B where domain A represents a non-functional 9 amino acids-long sequence of the TREM-1 inhibitory therapeutic peptide sequence wherein, Lys5 is substituted with Ala5, whereas domain B is a sulfoxidized methionine residue-containing 22 amino acids-long apolipoprotein A-I helix 4 or 6 peptide sequence, respectively. *, P=0.01 to 0.05 as compared with animals treated with 5 mg/kg TRIOPEP in free form; ***, P=0.0001 to 0.001 as compared with PBS-treated animals.

Structure (SMILES) | survival of LPS-challenged mice (LPS-challenged mice [1]) | production of cytokines by LPS-stimulated macrophages [2] | tumor growth [3] | receptors mediating in vitro macrophage endocytosis (J774A.1 macrophages) | in vitro macrophage endocytosis, effect of pre-incubation with HDL (J774A.1 macrophages) | TNF-alpha, IL-6 and IL-1beta production in mice at 90 min post LPS challenge (LPS-challenged mice [4])
CC(C)C[C@H](NC(=O)[C@H](Cc1ccccc1)NC(=O)CN)C(=O)N[C@@H](CO)C(=O)N[C@@H](CCCCN)C(=O)N[C@@H](CO)C(=O)N[C@@H](CC(C)C)C(=O)N[C@H](C(=O)N[C@@H](Cc1ccccc1)C(=O)NCC(=O)N[C@@H](CCC(=O)O)C(=O)N[C@@H](CCC(=O)O)C(=O)N[C@@H](CC[S+](C)[O-])C(=O)N[C@@H](CCCNC(=N)N)C(=O)N[C@@H](CC(=O)O)C(=O)N[C@@H](CCCNC(=N)N)C(=O)N[C@@H](C)C(=O)N[C@@H](CCCNC(=N)N)C(=O)N[C@@H](C)C(=O)N[C@@H](Cc1c[nH]cn1)C(=O)N[C@H](C(=O)O)C(C)C)C(C)C (stereo partly drawn) [G-HV21] (HELM PEPTIDE1{G.F.L.S.K.S.L.V.F.G.E.E.[CS(=O)CC[C@H](N[*:1])C(=O)[*:2]].R.D.R.A.R.A.H.V}$$$$V2.0) | significantly improve survival | inhibit production of cytokines by LPS-stimulated macrophages | inhibit tumor growth in three human PC xenograft mouse models | mediated with scavenger receptors (SR) A (SR-A) and BI (SR-B1) with SR-A being the predominant mediator | enhances in vitro macrophage endocytosis | significantly inhibit the LPS-induced cytokine release
CC(C)C[C@H](NC(=O)[C@H](Cc1ccccc1)NC(=O)CN)C(=O)N[C@@H](CO)C(=O)N[C@@H](CCCCN)C(=O)N[C@@H](CO)C(=O)N[C@@H](CC(C)C)C(=O)N[C@H](C(=O)N[C@@H](Cc1ccccc1)C(=O)N[C@@H](Cc1c[nH]c2ccccc12)C(=O)N[C@@H](CCC(N)=O)C(=O)N[C@@H](CCC(=O)O)C(=O)N[C@@H](CCC(=O)O)C(=O)N[C@@H](CC[S+](C)[O-])C(=O)N[C@@H](CCC(=O)O)C(=O)N[C@@H](CC(C)C)C(=O)N[C@@H](Cc1ccc(O)cc1)C(=O)N[C@@H](CCCNC(=N)N)C(=O)N[C@@H](CCC(N)=O)C(=O)N[C@@H](CCCCN)C(=O)N[C@H](C(=O)O)C(C)C)C(C)C (stereo partly drawn) [G-KV21] (HELM PEPTIDE1{G.F.L.S.K.S.L.V.F.W.Q.E.E.[CS(=O)CC[C@H](N[*:1])C(=O)[*:2]].E.L.Y.R.Q.K.V}$$$$V2.0) | significantly improve survival | inhibit production of cytokines by LPS-stimulated macrophages | inhibit tumor growth in three human PC xenograft mouse models | mediated with scavenger receptors (SR) A (SR-A) and BI (SR-B1) with SR-A being the predominant mediator | enhances in vitro macrophage endocytosis | significantly inhibit the LPS-induced cytokine release
